# Laboratory results as given in US9498507B2, “Antiviral composition” (Piramal Enterprises Limited, priority 2011, dated 2016).
# Legend:
# HSV-1 [1] = assay: Primary antiviral screening, CPE inhibition assay (crystal violet staining method); assay type: cell-based; settings: Human alphaherpesvirus 1
# Procedure: (§1) The assay was done as reported in Indian J. Med. Res., 2004, 120:24-29 incorporated herein by reference for its procedure.
# (§2) Vero cells (obtained in step 1 of Example 8) were propagated at a density of 1×10^4 cells/well in 96 well plate and incubated at 37° C. in a CO2 incubator for 24 hours to form a monolayer. Samples 1 to 26 were tested by adding at 50 μg/mL and 100 μg/mL concentration (DMSO stock of 20 mg/mL of the extract was diluted to 50 μg/mL and 100 μg/mL with DMEM containing 2% FBS) in a final culture volume of 200 μL/well. Appropriate controls were included such as Vero cells alone (cell control), Vero cells with virus (virus control) and Vero cells with virus and the standard compound, acyclovir (a commercially available antiviral drug). Acyclovir was tested at the following concentrations (DMSO stock of 20 mg/mL of acyclovir was diluted to 100 μg/mL with DMEM containing 2% FBS): 12.5 μg/mL, 6.25 μg/mL, 3.125 μg/mL, 1.5 μg/mL and 0.78 μg/mL against HSV-1 and 25 μg/mL, 12.5 μg/mL, 6.25 μg/mL and 3.125 μg/mL against HSV-2. The extracts to be assayed were added 1 hour prior to infection to provide maximum sensitivity and give a tentative idea of potential inhibitors of early replicative steps such as adsorption or penetration. After one hour, cells were infected with 100 μL of appropriate viral dose per well [HSV-1 at a multiplicity of infection (MOI) of 10^4 TCID50 or HSV-2 at a MOI of 10^3 TCID50] using viral stock obtained in step 2 of Example 8. The infected cells were incubated with maintenance medium (DMEM with 2% FBS) for another 48 to 50 hours. […] The staining solution was aspirated out and the plates rinsed using distilled water until all excess stain was washed away. The plates were allowed to dry for 24 hours. CPE was evaluated visually, after staining the plaques, and microscopically and graded according to the percentage of CPE inhibition as compared to controls.
# HSV-2 [2] = assay: as above; assay type: cell-based; settings: Human alphaherpesvirus 2
# Procedure: as §1, §2
# HSV-1 [3] = assay: Effect on replication at different time points post-infection (MTT); assay type: cell-based
# Procedure: (§3) These stages occur at different time points in the virus life cycle spanning from 1 hour—initiation of adsorption to 24 hours—completion of one HSV replication cycle. Adsorption stage of the virus life cycle is the initial attachment of the herpes virus to host cells which involves interaction of gC and gD (conserved glycoproteins) on the virus with cell surface receptors such as heparin sulfate. Attachment stage of the virus life cycle is the stable attachment which allows close association of virus with the cell. The stage of the virus life cycle subsequent to the adsorption and attachment stages is known as the post infection stage. Vero cells were seeded onto 96-well flat-bottomed plates at a density of 2.2×10^4 cells/well in 10% FBS-DMEM growth medium. After 20-24 hours, the confluent monolayers were infected with 100 μL/well of 1:10^4 virus dilution (HSV-1 clinical strain) (TCID50 5.88×10^6/mL) or 1:10^3 dilution of HSV-2 (TCID50 2.43×10^6/mL) and plates incubated for 1 hour at 37° C. and 5% CO2. […] Maintenance medium was added to the wells for virus control (virus dilution+maintenance medium) and cell control (maintenance medium only). The plates were further incubated for 48-50 hours at 37° C. […] The plate was left in the 37° C., 5% CO2 incubator overnight. After incubation, the plate cover was removed and absorbance measured in each well at 570 nm in the microplate plate reader (BIO-TEK, Synergy HT).
# HSV-2 [4] = assay: as above; assay type: cell-based
# Procedure: as §3
# HSV-1 [5] = assay: Antiviral activity prior to infection (pre-treatment plaque assay); assay type: cell-based; settings: 3.125-400 μg/mL
# Procedure: (§4) In order for herpes viruses to enter a target cell, they must fuse their lipid membrane envelope with the lipid membrane of the cell. This complex viral entry mechanism is mediated by at least three conserved glycoprotein's (gC, gB and gD) and their ability to bind cell surface receptors such as nectins and herpes virus entry mediator (HVEM) (Cell. Mol. Life Sci, 2008, 65, 1653-1668). […] Vero cells were seeded onto 24 well plates at a density of 1.8×10^5 cells/well. […] Following incubation, the plates were washed with 0.85% saline and stained with 0.13% crystal violet.
# HSV-2 [6] = assay: as above; assay type: cell-based; settings: 3.125-400 μg/mL
# Procedure: as §4
# HSV-1 [7] = assay: Virus penetration assay; assay type: cell-based; settings: compared to sample 23 of Example 4
# Procedure: (§5) Penetration of HSV into host cells may be defined as a step subsequent to initial binding to the host cell surface which triggers fusion of the virion envelope with the plasma membrane. This requires multiple interactions, in a cascade like manner, involving various glycoproteins (gB, gD and gH/gL) and cell surface components (Cell. Mol. Life Sci, 2008, 65, 1653-1668). […] Vero cells were seeded onto 24 well plates at a density of 1.8×10^5 cells/well. […] The cells were incubated at 4° C. for 2 hours to allow viral attachment. […] The plates were then washed with 0.85% saline and stained with 0.13% crystal violet.
# HSV-2 [8] = assay: Virus penetration assay; assay type: cell-based; settings: compared to sample 23 of Example 4
# Procedure: as §5
# HSV-1 [9] = assay: Virucidal activity assay; assay type: cell-based; settings: 25-400 μg/mL
# Description: (§6) In the virucidal assay, the continuous presence of an antiviral drug may be frequently required for blocking infectivity of viral particle for cultured cells and dilution of the virus-extract complexes may dissociate, releasing infectious virus (Antiviral research, 2010, 86, 196-203). If a sample is unable to reduce virus infectivity at the IC50 or other potent concentrations then the antiviral activity is not related to its virucidal ability. […] HSV-1 virus suspension at a concentration of approximately 10^10 pfu/mL and HSV-2 at 10^9 pfu/ml were prepared. […] These admixtures were then diluted […] (1:100) to yield a final concentration range of 0.25-4 μg/ml corresponding to 25-400 μg/ml.
# HSV-2 [10] = assay: Virucidal activity assay; assay type: cell-based; settings: 25-400 μg/mL
# Description: as §6
# HSV-1 [11] = assay: Mouse HSV-1 zosteriform spread infection model; assay type: in vivo, Balb/c female mice; settings: acyclovir 225 mg/kg/day topical
# Description: The assay was done as reported in Antimicrobial Agents and Chemotherapy, June 2002, p. 1766-1772, incorporated herein by reference for its procedure.
# Balb/c female mice of 6 to 8 weeks which are non-pregnant and nulliparous were used for the study. All the animals were shaved on right mid dorsal area using electric hair clipper and few horizontal scarification was done on shaved area using sterile 26 gauge needle, just before viral challenge.
# Prior to viral challenge, the scarified area of each mouse was cleaned with a cotton swab soaked in 70% alcohol followed by clearing the area using cotton swab soaked in sterile DMEM. Mice were then infected onto the scarified area with HSV-1 virus containing 8.27×10^3 pfu/animal. […]
# The following formulations, as described in Example 6, were evaluated: • (a) Formulation IA • (b) Formulation IB • (c) Formulation IC
# Formulation IA, Formulation IB and Formulation IC were applied topically thrice daily for a 5 day period. 15 mg of Formulation IA correspond to 225 mg/kg dose; 15 mg of Formulation IB correspond to 450 mg/kg dose; 15 mg of Formulation IC correspond to 675 mg/kg dose and 25 mg of Formulation IB correspond to 750 mg/kg dose evaluated in the animals.
# The animals were assessed daily for morbidity, mortality and the site of infection for a period of 21 days post infection. […]
# HSV-2 [12] = assay: Mouse vaginal model of HSV-2 infection; assay type: in vivo, Balb/c female mice; settings: acyclovir 225 mg/kg/day intravaginal
# Procedure: The assay was done as reported in Antiviral Research, 2006, 69:77-85, incorporated herein by reference for its procedure.
# Balb/c female mice of 6 to 8 weeks, non-pregnant and nulliparous were used for the study. Female BALB/c mice were used for vaginal inoculation with HSV-2. Five days prior to intravaginal (IVAG) challenge, mice were injected subcutaneously (sc) with 2 mg of progesterone (Depo-Provera®; Pfizer, Belgium) in the upper back, using a 29-gauge needle. On the day of challenge, mice were inoculated intravaginally with 1.14×10^5 pfu of HSV-2. IVAG administrations of virus were via a micropipette in a total volume of 20 μL DMEM. Animals received Formulation IA, Formulation IB, Formulation IC/acyclovir/placebo intravaginally by topical administration 30 minutes post infection. […]
# The following formulations, as described in Example 6, have been evaluated: • (a) Formulation IA • (b) Formulation IB • (c) Formulation IC
# Formulation IA, Formulation IB and Formulation IC were applied topically thrice daily for a 5 day period. 15 mg of Formulation IA correspond to 225 mg/kg dose; 15 mg of Formulation IB correspond to 450 mg/kg dose and 15 mg of Formulation IC correspond to 675 mg/kg dose evaluated in the animals.
# The animals were assessed daily for extravaginal disease signs and survival for a period of 21 days post infection. […]
smiles,measurement,setting,value
Nc1nc2c(ncn2COCCO)c(=O)[nH]1 [Acyclovir],inhibition at 0.78 µg/mL,HSV-1 [1]; 0.78 μg/mL,11 to 25%
same,inhibition at 1.5 µg/mL,HSV-1 [1]; 1.5 μg/mL,26 to 50%
same,inhibition at 3.125 µg/mL,HSV-1 [1]; 3.125 μg/mL,51 to 75%
same,inhibition at 6.25 µg/mL,HSV-1 [1]; 6.25 μg/mL,51 to 75%
same,inhibition at 12.5 µg/mL,HSV-1 [1]; 12.5 μg/mL,76 to 100%
same,inhibition at 3.125 µg/mL,HSV-2 [2]; 3.125 μg/mL,11 to 25%
same,inhibition at 6.25 µg/mL,HSV-2 [2]; 6.25 μg/mL,26 to 50%
same,inhibition at 12.5 µg/mL,HSV-2 [2]; 12.5 μg/mL,51 to 75%
same,inhibition at 25 µg/mL,HSV-2 [2]; 25 μg/mL,76 to 100%
same,antiviral effect,"HSV-1 [3]; 3.125-200 μg/mL, 0-7 hours",potent antiviral effect
same,antiviral effect,HSV-1 [3]; 16-24 hours,about 17%
same,antiviral effect,"HSV-2 [4]; 3.125-200 μg/mL, 0-7 hours",potent antiviral effect
same,antiviral effect,HSV-2 [4]; 16-24 hours p.i.,absent
same,inhibitory effect against HSV-1 prior to infection,HSV-1 [5],10-40%
same,inhibitory effect against HSV-2 prior to infection,HSV-2 [6],10-20%
same,inhibitory activity (penetration),HSV-1 [7],weak to moderate inhibitory activity
same,inhibitory activity (penetration),HSV-2 [8],weak to moderate inhibitory activity
same,virucidal effect against HSV-1,HSV-1 [9],0-32%
same,virucidal effect against HSV-2,HSV-2 [10],11-38%
same,mortality,HSV-1 [11],None of the mice died
same,recovery of all mice from zosteriform lesions,HSV-1 [11],"≤ 7 day, post infection"
same,mortality,HSV-2 [12],None of the mice died
same,signs of extravaginal disease,HSV-2 [12],None of the mice showed signs of extravaginal disease
